Among the data in patent US7399866B2, “Compounds, compositions, and methods” (Cytokinetics, Inc., priority 2003, dated 2008) are melting point values, retold here.

A word on the melting point: it is the temperature of the solid-liquid transition.

Turning to `CC(=O)N1CCC[C@@H](Oc2cc(F)cc(NC(=O)Nc3cccnc3)c2)C1` [Example 1, (R)-1-[3-(1-Acetyl-piperidin-3-yloxy)-5-fluoro-phenyl]-3-pyridin-3-yl-urea], the melting point is 145 °C.
